Values of other authors in patent US10456383B2, “Targeted approach in the management of Epidermolysis bullosa” (The Board of Trustees of the Leland Stanford Junior …, priority 2017, dated 2019).

Tests used:
[1] = ointment plasticized base containing no water (PCCA)
[2] = topical formulations, all cases; standard serum levels required for immunosuppression 5-15 ng/ml

sirolimus stability [1]: at least 6 months
systemic level of rapamycin [2]: less than 2 ng/ml
SMILES: CO[C@H]1C[C@@H]2CC[C@@H](C)[C@@](O)(O2)C(=O)C(=O)N2CCCC[C@H]2C(=O)O[C@H]([C@H](C)C[C@@H]2CC[C@@H](O)[C@H](OC)C2)CC(=O)[C@H](C)/C=C(\C)[C@@H](O)[C@@H](OC)C(=O)[C@H](C)C[C@H](C)/C=C/C=C/C=C/1C [Sirolimus]
